Assay results: the OligoGym collection
HELM strings list units from the 5' end as sugar, base in round brackets, then linkage (d deoxyribose, r ribose, m 2'-O-methyl, p phosphodiester). Strings are as the collection lists them; they lack the last nucleoside at the 3' end of the tested compound. [moe] = 2'-O-(2-methoxyethyl) (MOE); [sp] = phosphorothioate linkage; [m5C] = 5-methylcytosine

Target: UBE3A-ATS
Assay: mouse, dose not given
Settings: ASO

Row | Substance | 3 h FOB score
1 | RNA1{[moe](G)[sp].[moe](T)p.[moe](G)p.[moe](T)p.[moe]([m5C])p.d(A)[sp].d(T)[sp].d(A)[sp].d(T)[sp].d(G)[sp].d(T)[sp].d(A)[sp].d(G)[sp].d([m5C])[sp].d(A)[sp].[moe](A)p.[moe](T)p.[moe](T)[sp].[moe](A)}$$$$ (last 3' nucleoside missing) | 6.5 score 0-7
2 | RNA1{[moe](G)[sp].[moe](T)p.[moe](G)p.[moe](T)p.d(G)[sp].d(T)[sp].d(T)[sp].d(T)[sp].d(T)[sp].d(T)[sp].d([m5C])[sp].d([m5C])[sp].d(A)[sp].d(T)[sp].[moe](T)p.[moe](T)p.[moe](T)p.[moe](T)[sp].[moe]([m5C])}$$$$ (last 3' nucleoside missing) | 0 score 0-7
3 | RNA1{[moe](G)[sp].[moe](T)p.[moe](G)p.[moe](T)p.d(T)[sp].d(T)[sp].d(T)[sp].d(T)[sp].d([m5C])[sp].d([m5C])[sp].d(A)[sp].d(T)[sp].d(T)[sp].d(T)[sp].[moe](T)p.[moe](T)p.[moe]([m5C])p.[moe](T)[sp].[moe]([m5C])}$$$$ (last 3' nucleoside missing) | 0 score 0-7
4 | RNA1{[moe](G)[sp].[moe](T)p.[moe](G)p.[moe]([m5C])[sp].d(A)[sp].d(T)[sp].d(A)[sp].d([m5C])[sp].d([m5C])[sp].d([m5C])[sp].d(A)[sp].d(G)[sp].[moe](G)p.[moe](G)p.[moe](T)p.[moe](A)[sp].[moe](G)}$$$$ (last 3' nucleoside missing) | 1 score 0-7
5 | RNA1{[moe](G)[sp].[moe](T)p.[moe](G)p.[moe]([m5C])p.[moe](A)[sp].d(T)[sp].d(A)[sp].d([m5C])[sp].d([m5C])[sp].d([m5C])[sp].d(A)[sp].d(G)[sp].d(G)[sp].[moe](G)p.[moe](T)p.[moe](A)[sp].[moe](G)}$$$$ (last 3' nucleoside missing) | 5.5 score 0-7
6 | RNA1{[moe](G)[sp].[moe](T)p.[moe](G)p.[moe]([m5C])p.[moe](A)p.[moe](T)[sp].d(A)[sp].d([m5C])[sp].d([m5C])[sp].d([m5C])[sp].d(A)[sp].d(G)[sp].d(G)[sp].d(G)[sp].[moe](T)p.[moe](A)[sp].[moe](G)}$$$$ (last 3' nucleoside missing) | 4 score 0-7
7 | RNA1{[moe](G)[sp].[moe](T)p.[moe](G)p.[moe]([m5C])p.[moe](A)p.[moe](T)p.d(A)[sp].d([m5C])[sp].d([m5C])[sp].d([m5C])[sp].d(A)[sp].d(G)[sp].d(G)[sp].d(G)[sp].d(T)[sp].d(A)[sp].[moe](G)p.[moe](G)[sp].[moe](A)}$$$$ (last 3' nucleoside missing) | 1 score 0-7
8 | RNA1{[moe](G)[sp].[moe](T)p.[moe](G)p.[moe]([m5C])p.[moe](A)p.d(T)[sp].d(A)[sp].d([m5C])[sp].d([m5C])[sp].d([m5C])[sp].d(A)[sp].d(G)[sp].d(G)[sp].d(G)[sp].d(T)[sp].[moe](A)p.[moe](G)p.[moe](G)[sp].[moe](A)}$$$$ (last 3' nucleoside missing) | 1.2 score 0-7
9 | RNA1{[moe](G)[sp].[moe](T)p.[moe](G)p.[moe]([m5C])p.[moe]([m5C])p.d(T)[sp].d(T)[sp].d(T)[sp].d([m5C])[sp].d(T)[sp].d(A)[sp].d(T)[sp].d(T)[sp].d(T)[sp].d([m5C])[sp].[moe](A)p.[moe](G)p.[moe](A)[sp].[moe]([m5C])}$$$$ (last 3' nucleoside missing) | 0 score 0-7
10 | RNA1{[moe](G)[sp].[moe](T)p.[moe](G)p.[moe]([m5C])p.d(A)[sp].d(T)[sp].d(A)[sp].d([m5C])[sp].d([m5C])[sp].d([m5C])[sp].d(A)[sp].d(G)[sp].d(G)[sp].d(G)[sp].[moe](T)p.[moe](A)p.[moe](G)p.[moe](G)[sp].[moe](A)}$$$$ (last 3' nucleoside missing) | 2 score 0-7
11 | RNA1{[moe](G)[sp].[moe](T)p.[moe](T)p.[moe](A)p.[moe](G)p.d(G)[sp].d(T)[sp].d(T)[sp].d(A)[sp].d(G)[sp].d(T)[sp].d(G)[sp].d([m5C])[sp].d(A)[sp].d([m5C])[sp].[moe](A)p.[moe](G)p.[moe](A)[sp].[moe](T)}$$$$ (last 3' nucleoside missing) | 6 score 0-7
12 | RNA1{[moe](G)[sp].[moe](T)p.[moe](T)p.[moe](T)p.[moe](A)p.d(G)[sp].d(G)[sp].d(T)[sp].d([m5C])[sp].d(A)[sp].d(A)[sp].d([m5C])[sp].d([m5C])[sp].d(A)[sp].d(A)[sp].[moe](T)p.[moe](T)p.[moe](T)[sp].[moe](G)}$$$$ (last 3' nucleoside missing) | 1 score 0-7
13 | RNA1{[moe](G)[sp].[moe](T)p.[moe](T)p.[moe](T)p.[moe](A)p.d(T)[sp].d(A)[sp].d(G)[sp].d(G)[sp].d(G)[sp].d(T)[sp].d(G)[sp].d(G)[sp].d(T)[sp].d(T)[sp].[moe](G)p.[moe](G)p.[moe](T)[sp].[moe](T)}$$$$ (last 3' nucleoside missing) | 7 score 0-7
14 | RNA1{[moe](G)[sp].[moe](T)p.[moe](T)p.[moe](T)p.[moe](T)p.[moe](T)p.d([m5C])[sp].d([m5C])[sp].d(A)[sp].d(T)[sp].d(T)[sp].d(T)[sp].d(T)[sp].d(T)[sp].d([m5C])[sp].d(T)[sp].[moe]([m5C])p.[moe](T)[sp].[moe](T)}$$$$ (last 3' nucleoside missing) | 0 score 0-7
15 | RNA1{[moe](G)[sp].[moe](T)p.[moe](T)p.[moe](T)p.[moe](T)p.d(T)[sp].d([m5C])[sp].d([m5C])[sp].d(A)[sp].d(T)[sp].d(T)[sp].d(T)[sp].d(T)[sp].d(T)[sp].d([m5C])[sp].[moe](T)p.[moe]([m5C])p.[moe](T)[sp].[moe](T)}$$$$ (last 3' nucleoside missing) | 0 score 0-7
16 | RNA1{[moe](G)[sp].[moe](T)p.[moe](T)p.[moe](T)p.[moe](T)p.d([m5C])[sp].d(G)[sp].d([m5C])[sp].d([m5C])[sp].d([m5C])[sp].d(G)[sp].d(T)[sp].d(T)[sp].d(A)[sp].d([m5C])[sp].[moe]([m5C])p.[moe](T)p.[moe]([m5C])[sp].[moe](A)}$$$$ (last 3' nucleoside missing) | 5.3 score 0-7
17 | RNA1{[moe](G)[sp].[moe](T)p.[moe](T)p.[moe](T)p.d(T)[sp].d(T)[sp].d([m5C])[sp].d([m5C])[sp].d(A)[sp].d(T)[sp].d(T)[sp].d(T)[sp].d(T)[sp].d(T)[sp].[moe]([m5C])p.[moe](T)p.[moe]([m5C])p.[moe](T)[sp].[moe](T)}$$$$ (last 3' nucleoside missing) | 0 score 0-7
18 | RNA1{[moe](G)[sp].[moe](T)p.[moe](T)p.[moe]([m5C])p.[moe](T)p.d(G)[sp].d(G)[sp].d(A)[sp].d(A)[sp].d(T)[sp].d([m5C])[sp].d(T)[sp].d(T)[sp].d(G)[sp].d(T)[sp].[moe](A)p.[moe](G)p.[moe](A)[sp].[moe](G)}$$$$ (last 3' nucleoside missing) | 4 score 0-7
19 | RNA1{[moe](G)[sp].[moe](T)p.[moe]([m5C])p.[moe](A)[sp].d(T)[sp].d([m5C])[sp].d(T)[sp].d([m5C])[sp].d(G)[sp].d(G)[sp].d(G)[sp].d(T)[sp].[moe](A)p.[moe](T)p.[moe](A)p.[moe](T)[sp].[moe](A)}$$$$ (last 3' nucleoside missing) | 4.3 score 0-7
20 | RNA1{[moe](G)[sp].[moe](T)p.[moe]([m5C])p.[moe](A)p.[moe](A)p.d([m5C])[sp].d([m5C])[sp].d(A)[sp].d(A)[sp].d(T)[sp].d(T)[sp].d(T)[sp].d(G)[sp].d([m5C])[sp].d(T)[sp].[moe](A)p.[moe](T)p.[moe](T)[sp].[moe]([m5C])}$$$$ (last 3' nucleoside missing) | 1 score 0-7
21 | RNA1{[moe](G)[sp].[moe](T)p.[moe]([m5C])p.[moe](A)p.[moe](G)p.d(A)[sp].d(T)[sp].d(T)[sp].d([m5C])[sp].d([m5C])[sp].d(T)[sp].d(A)[sp].d(A)[sp].d(A)[sp].d(T)[sp].[moe](A)p.[moe]([m5C])p.[moe](G)[sp].[moe]([m5C])}$$$$ (last 3' nucleoside missing) | 0 score 0-7
22 | RNA1{[moe](G)[sp].[moe](T)p.[moe]([m5C])p.[moe](A)p.[moe](G)p.d(A)[sp].d([m5C])[sp].d(T)[sp].d(T)[sp].d(A)[sp].d(T)[sp].d(T)[sp].d(G)[sp].d(A)[sp].d(G)[sp].[moe](G)p.[moe](A)p.[moe](T)[sp].[moe](G)}$$$$ (last 3' nucleoside missing) | 4 score 0-7
23 | RNA1{[moe](G)[sp].[moe](T)p.[moe]([m5C])p.[moe](A)p.[moe](T)[sp].d([m5C])[sp].d(T)[sp].d([m5C])[sp].d(G)[sp].d(G)[sp].d(G)[sp].d(T)[sp].d(A)[sp].[moe](T)p.[moe](A)p.[moe](T)[sp].[moe](A)}$$$$ (last 3' nucleoside missing) | 4.3 score 0-7
24 | RNA1{[moe](G)[sp].[moe](T)p.[moe]([m5C])p.[moe](A)p.[moe](T)p.[moe]([m5C])[sp].d(T)[sp].d([m5C])[sp].d(G)[sp].d(G)[sp].d(G)[sp].d(T)[sp].d(A)[sp].d(T)[sp].[moe](A)p.[moe](T)[sp].[moe](A)}$$$$ (last 3' nucleoside missing) | 4.7 score 0-7
25 | RNA1{[moe](G)[sp].[moe](T)p.[moe]([m5C])p.[moe](A)p.[moe](T)p.[moe]([m5C])p.d(T)[sp].d([m5C])[sp].d(G)[sp].d(G)[sp].d(G)[sp].d(T)[sp].d(A)[sp].d(T)[sp].d(A)[sp].d(T)[sp].[moe](A)p.[moe](A)[sp].[moe](A)}$$$$ (last 3' nucleoside missing) | 4 score 0-7
26 | RNA1{[moe](G)[sp].[moe](T)p.[moe]([m5C])p.[moe](A)p.[moe](T)p.d([m5C])[sp].d(A)[sp].d([m5C])[sp].d([m5C])[sp].d(T)[sp].d([m5C])[sp].d(T)[sp].d([m5C])[sp].d(T)[sp].d(T)[sp].[moe]([m5C])p.[moe](A)p.[moe](G)[sp].[moe](G)}$$$$ (last 3' nucleoside missing) | 1 score 0-7
27 | RNA1{[moe](G)[sp].[moe](T)p.[moe]([m5C])p.[moe](A)p.[moe](T)p.d([m5C])[sp].d(T)[sp].d([m5C])[sp].d(G)[sp].d(G)[sp].d(G)[sp].d(T)[sp].d(A)[sp].d(T)[sp].d(A)[sp].[moe](T)p.[moe](A)p.[moe](A)[sp].[moe](A)}$$$$ (last 3' nucleoside missing) | 5.5 score 0-7
